The test system of assay [1] is WRL68 cells. Briefly: c-fos expression by northern blotting in serum-starved WRL68 cells. The format is cell-based. The conditions noted are these: treated 5 minutes to 2 hours, normalised to beta-actin. As for the experimental part:
7. Detection of increased c-fos mRNA after treatment with leptin. C-fos mRNA may be detected by Northern, RT-PCR or “slot blot” analysis.
WRL68 cells were grown to confluence in their standard culture medium in the simultaneous presence of 10% foetal calf serum. At confluence the cells were transferred to serum-free medium for a minimum of 18 hours (lowering the serum concentration may also produce similar results). Serum-starved cells were then treated with leptin or with serum (as positive control for c-fos upregulation) for varying time periods from 5 minutes to 2 hours. RNA was extracted from the cells and subjected to gel electrophoresis and northern blotting. The blotted RNA was then probed with a c-fos labelled probe to analyze the expression of c-fos, the data being normalised by analysing the expression of beta-actin. […] Therefore WRL68 cells is expected to be suitable for identification of leptin mimetics. Other cell lines could also be identified via analysis of c-fos expression in response to leptin.

In assay [2] the test system is rat-1 fibroblasts over expressing insulin receptors. The conditions noted are these: Kroder et al. 1996; cited from earlier work.

As to “Leptin: secreted hormone that acts as signal from adipose tissue to other organs to regulate weight and energy balance”, in assay [1], the c-fos expression entry was “significantly enhanced”. Besides, the “insulin stimulated phosphorylation of the insulin receptor and insulin receptor substrate-I” value in assay [2] is “inhibition”.

Values taken from patent US20020081602A1, “Method for the detection of compounds that modulate the effects of the obese (ob) protein” (SmithKline Beecham p.1.c., priority 1996, published 2002).
